Reference: US20230285374A1, “THERAPEUTIC METHODS USING VADADUSTAT” (Akebia Therapeutics, Inc., priority 2019, published 2023)

Key:
[1] = system: adult patients with NDD-CKD and anemia, actively treated with an ESA; assay: Phase 3 ESA-treated NDD-CKD (Conversion) trial, vadadustat vs darbepoetin alfa; type: in vivo, human; conditions: Conversion study
Description: Two global, Phase 3, randomized, open-label, active-controlled, sponsor-blind clinical trials were conducted to evaluate safety and efficacy of vadadustat (Compound 1) vs the ESA darbepoetin alfa in adult patients with NDD-CKD and anemia. Patients recruited into the ESA-untreated NDD-CKD trial (N=1761) had hemoglobin <10 g/dL and were not previously being treated with an ESA. Patients recruited into the ESA-treated NDD-CKD trial (N=1750) had hemoglobin ranges of 8-11 g/dL (US) or 9-12 g/dL (non-US) and were actively treated with an ESA for anemia associated with CKD. Trial periods in both trials included 1) correction/conversion (weeks 0-23); 2) maintenance (weeks 24-52); 3) long-term treatment (week 53 to end of treatment); and 4) safety follow-up (end-of-treatment to 4 weeks later). The primary safety endpoint was time to first adjudicated major adverse cardiovascular event, defined as all-cause mortality, non-fatal myocardial infarction or non-fatal stroke pooled across both trials. The primary efficacy endpoint in each trial was mean change in hemoglobin from baseline to primary evaluation period (weeks 24-36) comparing vadadustat vs darbepoetin alfa treatment arms. Demographics and baseline characteristics were similar among patients in both trials, and typical for a large proportion of the NDD-CKD population. These trials helped define the safety and efficacy of vadadustat, an oral hypoxia-inducible factor prolyl hydroxylase inhibitor for management of anemia associated with NDD-CKD.
Two randomized, Phase 3, open-label, active-controlled clinical trials were conducted to evaluate the safety and efficacy of oral vadadustat versus injectable darbepoetin alfa: Correction (previously ESA-untreated) and Conversion (previously ESA-treated). Target enrollment for each was approximately 1850 patients recruited at approximately 390 and 480 sites in North America, Latin America, Europe, and the Asia Pacific for the ESA-untreated NDD-CKD trial and the ESA-treated NDD-CKD trial, respectively.
Trial Populations. Each trial recruited adults (>18 years of age) with NDD-CKD (estimated glomerular filtration rate 60 mL/min/1.73 m^2). […] In addition to the hemoglobin entry criteria, all patients were required to have serum ferritin ≥100 ng/mL and transferrin saturation 20% at screening in order to be randomized. In the ESA-untreated NDD-CKD trial, ESA use was permitted during screening, as per standard of care; however, patients were excluded if they received any ESA within 8 weeks of randomization. In the ESA-treated NDD-CKD trial, patients were actively maintained on ESA therapy, with at least one dose received within 6 weeks before or during screening. […]

[2] = system: subjects receiving hemodialysis, previously maintained on epoetin alfa; assay: Open-label Phase 2 trial in subjects receiving hemodialysis previously maintained on epoetin alfa
Description: The primary endpoint was mean hemoglobin (Hb) change from pre-baseline average to midtrial (Weeks 7-8) and end-of trial (Weeks 15-16) and was analyzed using available data (no imputation).

## O=C(O)CNC(=O)c1ncc(-c2cccc(Cl)c2)cc1O [Compound 1, Vadadustat]
[1]; week 24 to week 36
  mean (SD) Hb level: 10.77 (0.98) g/dL
[1]; week 40 to week 52
  mean (SD) Hb level: 10.80 (1.04) g/dL
[1]; weeks 24 to 36, non-inferiority margin −0.75 g/dL
  least square mean difference in Hb (vadadustat vs darbepoetin alfa): -0.01 g/dL
[1]; weeks 40 to 52
  least square mean difference in Hb (vadadustat vs darbepoetin alfa): 0.00 g/dL
[2]; all cohorts
  subjects with an Hb excursion>13 g/dL: one
[2]; all dose cohorts (300 mg QD, 450 mg QD, 450 mg TIW), Weeks 7-8 and 15-16
  mean change in Hb from pre-baseline average: no statistically significant mean change
[2]; human, in vivo
  serious AEs attributed to study drug: No serious AEs
[2]; overall
  diarrhea: 10.6%
  nausea: 11.7%
  subjects who experienced an adverse event (AE): 83%
  vomiting: 9.6%
